Experimental data as given in patent US20190292179A1 (BRISTOL-MYERS SQUIBB COMPANY, priority 2016, published 2019).

These molecules were tested against T1, HIS-TGFβR1 T204D (Homo sapiens, UniProt P36897, T204D) (assay: HTRF probe-displacement assay with HIS-TGFβR1 T204D). Settings: 1 nM HIS-TGFβR1 T204D, labeled probe at Kd, 1 hour at room temperature.
T1 sequence (P36897 34-503 T204D): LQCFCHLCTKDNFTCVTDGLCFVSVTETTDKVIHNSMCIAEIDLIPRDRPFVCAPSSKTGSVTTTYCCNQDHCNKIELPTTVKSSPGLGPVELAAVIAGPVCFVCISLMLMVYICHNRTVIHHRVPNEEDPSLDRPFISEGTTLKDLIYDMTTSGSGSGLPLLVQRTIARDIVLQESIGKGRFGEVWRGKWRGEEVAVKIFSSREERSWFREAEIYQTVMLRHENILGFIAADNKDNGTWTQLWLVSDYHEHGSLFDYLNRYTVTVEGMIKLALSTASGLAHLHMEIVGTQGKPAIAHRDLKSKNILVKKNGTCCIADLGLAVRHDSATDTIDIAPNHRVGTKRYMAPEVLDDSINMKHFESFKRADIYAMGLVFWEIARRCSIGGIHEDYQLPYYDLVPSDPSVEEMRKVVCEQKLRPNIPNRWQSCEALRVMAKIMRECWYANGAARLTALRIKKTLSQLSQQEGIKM
Type: binding
Method: The reaction is incubated for 1 hour at room temperature and the HTRF signal was measured on an Envision plate reader (Ex: 340 nm; Em: 520 nm/495 nm). Inhibition data were calculated by comparison to no enzyme control reactions for 100% inhibition and vehicle-only reactions for 0% inhibition. The final concentration of reagents in the assay are 1 nM HIS-TGFβR1 T204D or HIS-TGFβR2 WT, 0.2 nM anti-HIS detection antibody, labeled small molecule probe (at Kd) and 0.5% DMSO. Dose response curves were generated to determine the concentration required inhibiting 50% of kinase activity (IC50). Compounds were dissolved at 10 mM in dimethylsulfoxide (DMSO) and evaluated at eleven concentrations. IC50 values were derived by non-linear regression analysis.

IC50 [µM] | SMILES
0.145 | CC(C)c1nn(C)c(-c2ccc(F)cc2)c1-c1ccc2ncc(C(N)=O)n2c1 [Example 71]
9.86 | CC(C)c1nn(C)c(-c2ccc(F)cc2)c1-c1ccc2ncc(C(C)(C)O)n2c1 [Example 73, 2-(6-(5-(4-fluorophenyl)-3-isopropyl-1-methyl-1H-pyrazol-4-yl)imidazo[1,2-a]pyridin-3-yl)propan-2-ol]
0.374 | CC(C)c1c(-c2ccc3ncc(C(C)(C)O)n3c2)c(-c2ccc(F)cc2)nn1C [Example 74, 2-(6-(3-(4-fluorophenyl)-5-isopropyl-1-methyl-1H-pyrazol-4-yl)imidazo[1,2-a]pyridin-3-yl)propan-2-ol]
0.01 | CC(C)(O)c1cnc2ccc(-c3c(-c4ccc(F)cc4)n[nH]c3C3CC3)cn12 [Example 89, 2-(6-(5-cyclopropyl-3-(4-fluorophenyl)-1H-pyrazol-4-yl)imidazo[1,2-a]pyridin-3-yl)propan-2-ol]
0.004 | OCc1cnc2ccc(-c3c(-c4ccc(F)cc4)n[nH]c3C3CC3)cn12 [Example 90, (6-(5-cyclopropyl-3-(4-fluorophenyl)-1H-pyrazol-4-yl)imidazo[1,2-a]pyridin-3-yl)methanol]
0.008 | CC(O)c1cnc2ccc(-c3c(-c4ccc(F)cc4)n[nH]c3C3CC3)cn12 (stereo not drawn) [Example 91, 1-(6-(5-cyclopropyl-3-(4-fluorophenyl)-1H-pyrazol-4-yl)imidazo[1,2-a]pyridin-3-yl)ethanol]
0.058 | Cn1nc(C2CC2)c(-c2ccc3ncc(C(N)=O)n3c2)c1-c1ccc(F)cc1 [Example 95, 6-(3-cyclopropyl-5-(4-fluorophenyl)-1-methyl-1H-pyrazol-4-yl)imidazo[1,2-a]pyridine-3-carboxamide]
0.014 | Fc1ccc(-c2n[nH]c(C3CC3)c2-c2ccc3ncc(F)n3c2)cc1 [Example 102, 6-(5-cyclopropyl-3-(4-fluorophenyl)-1H-pyrazol-4-yl)-3-fluoroimidazo[1,2-a]pyridine]
2.24 | Cn1nc(C2CC2)c(-c2ccc3ncc(F)n3c2)c1-c1ccc(F)cc1 [Example 104, 6-(3-cyclopropyl-5-(4-fluorophenyl)-1-methyl-1H-pyrazol-4-yl)-3-fluoroimidazo[1,2-a]pyridine]
0.022 | Cn1nc(-c2ccc(F)cc2)c(-c2ccc3ncc(C(N)=O)n3c2)c1C(F)(F)F [Example 108, 6-(3-(4-fluorophenyl)-1-methyl-5-(trifluoromethyl)-1H-pyrazol-4-yl)imidazo[1,2-a]pyridine-3-carboxamide]
1.13 | Cn1nc(C(F)(F)F)c(-c2ccc3ncc(C(N)=O)n3c2)c1-c1ccc(F)cc1 [Example 109, 6-(5-(4-fluorophenyl)-1-methyl-3-(trifluoromethyl)-1H-pyrazol-4-yl)imidazo[1,2-a]pyridine-3-carboxamide]
0.173 | N#Cc1cnc2ccc(-c3c(-c4ccc(F)cc4)nn4c3COCC4)cn12 [Example 110, 6-(2-(4-fluorophenyl)-6,7-dihydro-4H-pyrazolo[5,1-c][1,4]oxazin-3-yl)imidazo[1,2-a]pyridine-3-carbonitrile]
3.81 | CC(C)(O)c1cnc2ccc(-c3c(-c4ccc(F)cc4)nn4c3COCC4)cn12 [Example 113, 2-(6-(2-(4-fluorophenyl)-6,7-dihydro-4H-pyrazolo[5,1-c][1,4]oxazin-3-yl)imidazo[1,2-a]pyridin-3-yl)propan-2-ol]

Continued, molecule first:

SMILES | IC50 [µM]
N#Cc1cnc2ccc(-c3c[nH]nc3-c3cccc(C(F)(F)F)n3)cn12 [Example 1, 6-(3-(6-(trifluoromethyl)pyridin-2-yl)-1H-pyrazol-4-yl)imidazo[1,2-a]pyridine-3-carbonitrile] | 0.001
FC(F)(F)c1cccc(-c2n[nH]cc2-c2ccc3nccn3c2)n1 [Example 3, 6-(3-(6-(trifluoromethyl)pyridin-2-yl)-1H-pyrazol-4-yl)imidazo[1,2-a]pyridine] | 0.001
N#Cc1cnc2ccc(-c3cn(CC(F)F)nc3-c3cccc(C(F)(F)F)n3)cn12 [Example 7, 6-(1-(2,2-difluoroethyl)-3-(6-(trifluoromethyl)pyridin-2-yl)-1H-pyrazol-4-yl)imidazo[1,2-a]pyridine-3-carbonitrile] | 0.008
NC(=O)c1cnc2ccc(-c3cn(CC(F)F)nc3-c3cccc(C(F)(F)F)n3)cn12 [Example 8, 6-(1-(2,2-difluoroethyl)-3-(6-(trifluoromethyl)pyridin-2-yl)-1H-pyrazol-4-yl)imidazo[1,2-a]pyridine-3-carboxamide] | 0.006
Cn1cc(-c2ccc3ncc(C#N)n3c2)c(-c2cccc(C(F)(F)F)n2)n1 [Example 9, 6-(1-methyl-3-(6-(trifluoromethyl)pyridin-2-yl)-1H-pyrazol-4-yl)imidazo[1,2-a]pyridine-3-carbonitrile] | 0.024
O=C(Nc1cnc2ccc(-c3c[nH]nc3-c3ccc(F)cc3)cn12)C(F)(F)F [Example 16, 2,2,2-trifluoro-N-(6-(3-(4-fluorophenyl)-1H-pyrazol-4-yl)imidazo[1,2-a]pyridin-3-yl)acetamide] | 0.187
Nc1cc(-c2c[nH]nc2-c2ccc(F)cc2)cn2ccnc12 [Example 32, 6-(3-(4-fluorophenyl)-1H-pyrazol-4-yl)imidazo[1,2-a]pyridin-8-amine] | 0.465
Cc1cccc(-c2nn(C)cc2-c2ccc3ncc(C(C)(C)O)n3c2)n1 [Example 52] | 0.007
Cc1cccc(-c2nn(C)cc2-c2ccc3ncc(NC(C)(C)C)n3c2)n1 [Example 53, N-(tert-butyl)-6-(1-methyl-3-(6-methylpyridin-2-yl)-1H-pyrazol-4-yl)imidazo[1,2-a]pyridin-3-amine] | 0.03
Cc1cccc(-c2nn(C)cc2-c2ccc3ncc(NC(=O)C(F)(F)F)n3c2)n1 [Example 54] | 0.079
CC(=O)Nc1cnc2ccc(-c3c[nH]nc3-c3ccc(F)cc3)nn12 [Example 58, N-(6-(3-(4-fluorophenyl)-1H-pyrazol-4-yl)imidazo[1,2-b]pyridazin-3-yl)acetamide] | 0.025
O=C(O)c1cnc2ccc(-c3c[nH]nc3-c3ccc(F)cc3)cn12 [Example 60, 6-(3-(4-fluorophenyl)-1H-pyrazol-4-yl)imidazo[1,2-a]pyridine-3-carboxylic acid] | 0.012
CC(C)c1[nH]nc(-c2ccc(F)cc2)c1-c1ccc2nccn2c1 [Example 69, 6-(3-(4-fluorophenyl)-5-isopropyl-1H-pyrazol-4-yl)imidazo [1,2-a]pyridine] | 0.007
CC(C)c1[nH]nc(-c2ccc(Cl)cc2)c1-c1ccc2ncc(C#N)n2c1 [Example 75, 6-(3-(4-chlorophenyl)-5-isopropyl-1H-pyrazol-4-yl)imidazo[1,2-a]pyridine-3-carbonitrile] | 0.054
CC(C)c1[nH]nc(-c2ccc(Cl)cc2)c1-c1ccc2nccn2c1 [Example 77, 6-(3-(4-chlorophenyl)-5-isopropyl-1H-pyrazol-4-yl)imidazo[1,2-a]pyridine] | 0.144
Cc1cc(-c2n[nH]c(C(C)C)c2-c2ccc3nccn3c2)ccc1F [Example 80, 6-(3-(4-fluoro-3-methylphenyl)-5-isopropyl-1H-pyrazol-4-yl)imidazo[1,2-a]pyridine] | 0.001
CCc1[nH]nc(-c2ccc(F)cc2)c1-c1ccc2ncc(C#N)n2c1 [Example 81, 6-(5-ethyl-3-(4-fluorophenyl)-1H-pyrazol-4-yl)imidazo[1,2-a]pyridine-3-carbonitrile] | 0.006
CCc1[nH]nc(-c2ccc(F)cc2)c1-c1ccc2nccn2c1 [Example 83, 6-(5-ethyl-3-(4-fluorophenyl)-1H-pyrazol-4-yl)imidazo[1,2-a]pyridine] | 0.017
N#Cc1cnc2ccc(-c3c(-c4ccc(Cl)cc4)n[nH]c3C3CC3)cn12 [Example 96, 6-(3-(4-chlorophenyl)-5-cyclopropyl-1H-pyrazol-4-yl)imidazo[1,2-a]pyridine-3-carbonitrile] | 0.07
Clc1ccc(-c2n[nH]c(C3CC3)c2-c2ccc3nccn3c2)cc1 [Example 98, 6-(3-(4-chlorophenyl)-5-cyclopropyl-1H-pyrazol-4-yl)imidazo[1,2-a]pyridine] | 0.05
Cc1cc(-c2n[nH]c(C3CC3)c2-c2ccc3nccn3c2)ccc1F [Example 101, 6-(5-cyclopropyl-3-(4-fluoro-3-methylphenyl)-1H-pyrazol-4-yl)imidazo[1,2-a]pyridine] | 0.001
N#Cc1cnc2ccc(-c3c(-c4ccc(F)cc4)n[nH]c3C(F)(F)F)cn12 [Example 105, 6-(3-(4-fluorophenyl)-5-(trifluoromethyl)-1H-pyrazol-4-yl)imidazo[1,2-a]pyridine-3-carbonitrile] | 0.041
Fc1ccc(-c2n[nH]c(C(F)(F)F)c2-c2ccc3nccn3c2)cc1 [Example 107, 6-(3-(4-fluorophenyl)-5-(trifluoromethyl)-1H-pyrazol-4-yl)imidazo[1,2-a]pyridine] | 0.147
